Measurements published in patent publication US20240383900A1, “SUBSTITUTED PYRAZOLO [1,5-A]PYRIMIDINE-7-AMINE COMPOUNDS AS CDK INHIBITORS AND THEIR THERAPEUTIC USE” (Carrick Therapeutics Limited, priority 2021, published 2024).
Read-outs that look alike come from different tables or passages of the source.

Legend:
A673 cells = assay: Cytotoxicity in A673 cells (Cell Titer Glo viability); assay type: cell-based; conditions: for Ratio of Biochemical Potency:Cellular Potency: CDK12 IC50 / A673 IC50; for IC50: Homo sapiens
Experimental: Cells were plated in 96-well plates at a density of […] viable cells per well in 200 μL fully supplemented growth medium (DMEM+10% heat inactivated foetal bovine serum) and incubated for 24 hours in standard tissue culture conditions. Compounds, including MLN4924, were solubilised in DMSO and then diluted in fully supplemented growth medium at 2× their final assay concentration such that the final DMSO concentration was 0.1%. Growth medium in the assay plates was replaced with 50 μL of growth medium containing 2×MLN4924 (final assay concentration: 30 nM, where tested) or vehicle only and 50 μL of growth medium containing a 2× compound concentration series or vehicle only such that each compound was at 1× final assay concentration in 100 μL.
Cells were then incubated for 72 hours in standard tissue culture conditions before viability was assessed using 50 μL Cell Titer Glo reagent (Promega) per well and luminescence measured on an EnVision plate reader. Data were normalised to vehicle control (100%) and cells treated with 0.1% Triton x-100 for 1 hour before viability measurement (0%; full cell kill). […] Viability curves generated in the presence of MLN4924 were normalised and fixed to controls treated with MLN4924.

Human CDK12 wt/CycK = Human CDK12 wt/CycK (Homo sapiens (Human), UniProt Q9NYV4); assay: Radiometric protein kinase assay (33PanQinase Activity Assay), CDK12; assay type: biochemical; conditions: for CDK7/CDK12: ratio of CDK7 IC50 to CDK12 IC50, greater than 1 indicates selectivity for CDK12
Chain of Human CDK12 wt/CycK (Q9NYV4 whole entry): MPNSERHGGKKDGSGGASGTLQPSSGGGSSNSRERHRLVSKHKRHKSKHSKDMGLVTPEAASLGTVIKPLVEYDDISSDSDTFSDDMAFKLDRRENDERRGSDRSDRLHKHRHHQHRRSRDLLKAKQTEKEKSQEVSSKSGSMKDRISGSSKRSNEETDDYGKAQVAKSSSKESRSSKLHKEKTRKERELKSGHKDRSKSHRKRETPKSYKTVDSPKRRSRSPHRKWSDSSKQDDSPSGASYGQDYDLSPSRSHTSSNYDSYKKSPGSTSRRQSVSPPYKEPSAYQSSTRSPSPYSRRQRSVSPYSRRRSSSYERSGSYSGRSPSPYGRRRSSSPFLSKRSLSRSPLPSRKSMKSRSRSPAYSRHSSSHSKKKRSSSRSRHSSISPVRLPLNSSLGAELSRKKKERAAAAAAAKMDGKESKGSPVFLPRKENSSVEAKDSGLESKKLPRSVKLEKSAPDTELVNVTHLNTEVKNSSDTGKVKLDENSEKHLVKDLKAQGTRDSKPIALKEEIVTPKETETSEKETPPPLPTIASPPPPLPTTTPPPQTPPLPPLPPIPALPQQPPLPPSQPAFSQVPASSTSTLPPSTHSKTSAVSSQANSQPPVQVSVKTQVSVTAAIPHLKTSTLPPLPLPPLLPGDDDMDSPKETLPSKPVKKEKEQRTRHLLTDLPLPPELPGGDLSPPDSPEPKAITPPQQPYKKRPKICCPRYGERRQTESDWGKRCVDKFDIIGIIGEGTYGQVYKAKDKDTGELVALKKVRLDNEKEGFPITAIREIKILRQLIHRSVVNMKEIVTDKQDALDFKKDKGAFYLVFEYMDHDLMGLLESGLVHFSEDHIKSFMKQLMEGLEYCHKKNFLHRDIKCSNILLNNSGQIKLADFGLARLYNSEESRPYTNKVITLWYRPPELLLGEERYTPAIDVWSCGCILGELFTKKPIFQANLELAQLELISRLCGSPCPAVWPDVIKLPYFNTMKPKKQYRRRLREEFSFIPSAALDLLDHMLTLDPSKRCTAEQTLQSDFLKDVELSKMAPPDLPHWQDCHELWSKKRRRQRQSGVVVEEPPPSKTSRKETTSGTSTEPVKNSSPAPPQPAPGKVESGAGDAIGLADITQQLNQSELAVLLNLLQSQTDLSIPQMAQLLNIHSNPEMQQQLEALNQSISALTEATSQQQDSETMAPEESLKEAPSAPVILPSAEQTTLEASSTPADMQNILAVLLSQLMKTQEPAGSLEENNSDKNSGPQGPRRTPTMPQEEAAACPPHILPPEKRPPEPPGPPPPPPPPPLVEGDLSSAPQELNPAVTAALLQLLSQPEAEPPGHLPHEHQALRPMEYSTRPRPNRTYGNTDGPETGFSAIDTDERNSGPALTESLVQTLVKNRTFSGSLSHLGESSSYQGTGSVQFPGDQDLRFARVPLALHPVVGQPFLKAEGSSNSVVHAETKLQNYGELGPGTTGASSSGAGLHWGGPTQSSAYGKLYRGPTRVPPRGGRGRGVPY
Chain of Human CDK12 wt/CycK (O75909 whole entry partner): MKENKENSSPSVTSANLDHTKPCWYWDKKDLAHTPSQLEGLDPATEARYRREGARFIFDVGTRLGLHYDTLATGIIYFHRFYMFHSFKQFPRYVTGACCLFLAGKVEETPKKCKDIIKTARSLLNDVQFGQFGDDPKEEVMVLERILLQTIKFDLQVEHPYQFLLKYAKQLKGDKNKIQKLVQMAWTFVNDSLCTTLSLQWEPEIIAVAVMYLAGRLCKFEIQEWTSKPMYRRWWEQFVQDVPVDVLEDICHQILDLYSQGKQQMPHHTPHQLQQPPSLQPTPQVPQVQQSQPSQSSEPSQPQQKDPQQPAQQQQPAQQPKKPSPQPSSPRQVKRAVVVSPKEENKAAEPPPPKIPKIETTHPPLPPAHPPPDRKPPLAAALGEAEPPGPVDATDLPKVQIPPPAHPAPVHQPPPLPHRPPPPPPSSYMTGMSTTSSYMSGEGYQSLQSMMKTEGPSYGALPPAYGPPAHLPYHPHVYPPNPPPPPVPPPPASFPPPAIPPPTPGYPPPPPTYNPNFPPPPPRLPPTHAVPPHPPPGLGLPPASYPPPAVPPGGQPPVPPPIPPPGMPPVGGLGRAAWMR
Experimental: (§1) A radiometric protein kinase assay (^33PanQinase® Activity Assay) was used for measuring the kinase activity of the two protein kinases (CDK12/CDK7). All kinase assays were performed in 96-well FlashPlates™ from PerkinElmer (Boston, MA, USA) in a 50 μL reaction volume.
(§2) The reaction cocktail was pipetted in four steps in the following order: • 20 μL of assay buffer (standard buffer) • 5 μL of ATP solution (in H2O) • 5 μL of test compound (in 10% DMSO) • 10 μL of substrate/10 μL of enzyme solution (premixed)
(§3) The reaction mixture was incubated at 30° C. for 60 min and then stopped by the addition of 2% (v/v) H3PO4. Plates were aspirated and washed two times with 200 μL 0.9% (w/v) NaCl. Incorporation of ^33Pi was determined with a microplate scintillation count (Microbeta, Wallac).
The fitting method used was a least-squares fit.

Human CDK7/CycH/MAT1 = Human CDK7/CycH/MAT1 (Homo sapiens (Human), UniProt P50613); assay: Radiometric protein kinase assay (33PanQinase Activity Assay), CDK7; assay type: biochemical; conditions: ATP 3 μM
Chain of Human CDK7/CycH/MAT1 (P50613 whole entry): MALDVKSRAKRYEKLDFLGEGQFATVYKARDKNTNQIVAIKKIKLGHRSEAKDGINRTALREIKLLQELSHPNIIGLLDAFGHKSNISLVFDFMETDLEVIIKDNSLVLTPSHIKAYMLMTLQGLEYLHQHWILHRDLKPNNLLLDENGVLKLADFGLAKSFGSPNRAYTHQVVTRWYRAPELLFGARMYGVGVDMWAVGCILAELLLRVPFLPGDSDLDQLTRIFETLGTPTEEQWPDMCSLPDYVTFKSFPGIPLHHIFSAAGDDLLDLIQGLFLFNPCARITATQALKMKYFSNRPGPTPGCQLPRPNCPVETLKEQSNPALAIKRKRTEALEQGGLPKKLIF
Chain of Human CDK7/CycH/MAT1 (P51946 whole entry partner): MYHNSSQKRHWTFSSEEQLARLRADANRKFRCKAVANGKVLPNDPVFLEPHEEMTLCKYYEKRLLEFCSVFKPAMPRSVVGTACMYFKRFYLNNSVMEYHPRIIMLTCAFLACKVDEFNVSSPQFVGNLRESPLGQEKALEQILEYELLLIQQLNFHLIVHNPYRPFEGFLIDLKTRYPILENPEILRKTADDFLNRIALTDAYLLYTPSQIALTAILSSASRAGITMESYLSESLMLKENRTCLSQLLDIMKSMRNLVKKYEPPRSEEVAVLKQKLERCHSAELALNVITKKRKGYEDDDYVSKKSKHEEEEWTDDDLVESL
Chain of Human CDK7/CycH/MAT1 (P51948 whole entry partner): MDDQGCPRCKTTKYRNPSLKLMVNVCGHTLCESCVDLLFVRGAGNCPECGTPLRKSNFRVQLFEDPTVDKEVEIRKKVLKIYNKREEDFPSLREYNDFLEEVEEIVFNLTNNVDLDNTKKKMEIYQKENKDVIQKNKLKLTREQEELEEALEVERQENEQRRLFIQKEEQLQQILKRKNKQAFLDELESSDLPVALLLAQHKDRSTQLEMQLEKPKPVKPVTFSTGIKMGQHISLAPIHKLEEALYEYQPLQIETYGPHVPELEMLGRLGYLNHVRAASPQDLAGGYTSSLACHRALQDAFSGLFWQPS
Experimental: Additionally for the CDK7 assay: • Human CDK7/CycH/MAT1 (ProQinase, 0366-0360-4—Lot 2). • RBER-CHKtide (ProQinase, 0581-0000-5—Lot 106).
as §1, §2
For the CDK7 assay, a reaction mixture (50 μL) containing the following components was prepared: • 70 mM HEPES-NaOH (pH 7.5); • sodium orthovanadate (3 μM); • PEG-20000 (50 μg/mL); • DTT (1.2 mM); • MgCl2 (3 mM); • MnCl2 (3 mM); • purified human CDK7/CycH/MAT1 (3.3 nM—Lot 02); • RBER-CHKtide substrate (40 μg/mL—Lot 106); • ATP (3 μM); • [γ-33P]-ATP (approx. 8×10^5 cpm per well); and • test compound at the appropriate concentration such that the final concentration of DMSO was […].
as §3
The residual activities for each concentration and the compound IC50 values were calculated using Quattro Workflow V3.1.1 (Quattro Research GmbH, Munich, Germany). The fitting model for the IC50 determinations was “Sigmoidal response (variable slope)” with parameters “top” fixed at 100% and “bottom” at 0%. The fitting method used was a least-squares fit.

[1] = A673, read-out: Cellular Potency IC50 (nM) (in A673 cells)
[2] = A673 cells, 72 hours, read-out: A673 IC50
[3] = ATP 0.3 μM, read-out: CDK12 IC50
[4] = read-out: CKD12 Biochemical Potency IC50

IC50 (Human CDK12 wt/CycK; [3]) [nM] | CDK7/CDK12 (Human CDK12 wt/CycK) | IC50 (Human CDK12 wt/CycK; [4]) [nM] | IC50 (Human CDK7/CycH/MAT1) [nM] | Structure (SMILES) | Ratio of Biochemical Potency:Cellular Potency (A673 cells) | IC50 (A673 cells; [1]) [nM] | IC50 (A673 cells; [2]) [nM]
218 | 1.7 | 218 | 370 | COc1cc(-c2ccccn2)ccc1CNc1cc(NC[C@H]2CCNC[C@@H]2O)nc2c(C3CC3)cnn12 [PPA-030] | 35.16 | 6.2 | 6.2
60 | 2.6 | 60 | 155 | O[C@H]1CNCC[C@@H]1CNc1cc(NCc2ccc(-c3ncco3)cc2)n2ncc(C3CC3)c2n1 [PPA-031] | 46.15 | 1.3 | 1.3
1160 | 2.4 | 1160 | 2760 | c1ccc(-c2ccc(CNc3cc(NC[C@H]4CNCCO4)nc4c(C5CC5)cnn34)cc2)nc1 [PPA-032] | 22.52 | 51.5 | 51.5
1050 | 6.3 | 1050 | 6650 | c1ccc(-c2ccc(CNc3cc(N4CCOCC4)nc4c(C5CC5)cnn34)cc2)nc1 [PPA-033] | 19.81 | 53 | 53
121 | 4.4 | 121 | 530 | O[C@H]1CNCC[C@@H]1CNc1cc(NCc2ccc(-c3ccccc3)cn2)n2ncc(C3CC3)c2n1 [PPA-034] | 10.71 | 11.3 | 11.3
52 | 2.2 | 52 | 113 | O[C@H]1CNCC[C@@H]1CNc1cc(NCc2ccc(-c3cscn3)cc2)n2ncc(C3CC3)c2n1 [PPA-035] | 28.89 | 1.8 | 1.8
245 | 1.6 | 245 | 388 | O[C@H]1CNCC[C@@H]1CNc1cc(NCc2ccc(-c3ncccc3C(F)(F)F)cc2)n2ncc(C3CC3)c2n1 [PPA-036] | 0.78 | 312 | 312
115 | 26.3 | 115 | 3020 | c1ccc(-c2ccc(CNc3cc(N4CCNCC4)nc4c(C5CC5)cnn34)cc2)nc1 [PPA-038] | 18.55 | 6.2 | 6.2
189 | 8.5 | 189 | 1600 | FC1(F)CNCCC1CNc1cc(NCc2ccc(-c3ccccn3)cc2)n2ncc(C3CC3)c2n1 (stereo not drawn) [PPA-041] | 10.92 | 17.3 | 17.3
2020 | 5.1 | 2020 | 10300 | c1ccc(-c2ccc(CNc3cc(N4CC5(CCNCC5)C4)nc4c(C5CC5)cnn34)cc2)nc1 [PPA-042] | 8.69 | 232 | 232
254 | 23.9 | 254 | 6080 | c1ccc(-c2ccc(CNc3cc(N[C@@H]4CCNC4)nc4c(C5CC5)cnn34)cc2)nc1 [PPA-043] | 18.54 | 13.7 | 13.7

Second part, the compound before the results:

Structure (SMILES) | IC50 (Human CDK12 wt/CycK; [3]) [nM] | CDK7/CDK12 (Human CDK12 wt/CycK) | IC50 (Human CDK12 wt/CycK; [4]) [nM] | IC50 (Human CDK7/CycH/MAT1) [nM] | Ratio of Biochemical Potency:Cellular Potency (A673 cells) | IC50 (A673 cells; [1]) [nM] | IC50 (A673 cells; [2]) [nM]
COc1cc(CNc2cc(NC[C@H]3CCNC[C@@H]3O)nc3c(C4CC4)cnn23)ccc1-c1ccccn1 [PPA-015] | 235 | 1.9 | 235 | 445 | 1.31 | 179 | 179
O[C@H]1CNCC[C@@H]1CNc1cc(NCc2ccc(-c3ccccn3)cc2)n2ncc(Cl)c2n1 [PPA-016] | 22 | 4.3 | 22 | 94 | 110.00 | 0.2 | 0.2
O[C@H]1CNCC[C@@H]1CNc1cc(NCc2ccc(-n3cccc3)cc2)n2ncc(C3CC3)c2n1 [PPA-017] | 115 | 2.9 | 115 | 337 | 63.89 | 1.8 | 1.8
O[C@H]1CNCC[C@@H]1CNc1cc(NCc2ccc(-c3ccc(F)cn3)cc2)n2ncc(C3CC3)c2n1 [PPA-019] | 70 | 3.2 | 70 | 224 | 1.34 | 52.4 | 52.4
O[C@H]1CNCC[C@@H]1CNc1cc(NCc2ccc(-c3ccccn3)cn2)n2ncc(C3CC3)c2n1 [PPA-021] | 69 | 5.7 | 69 | 393 | 9.20 | 7.5 | 7.5
O[C@H]1CNCC[C@@H]1CNc1cc(NCc2cc(F)c(-c3ccccn3)cn2)n2ncc(C3CC3)c2n1 [PPA-022] | 72 | 1.8 | 72 | 130 | 48.00 | 1.5 | 1.5
Cc1nccn1-c1ccc(CNc2cc(NC[C@H]3CCNC[C@@H]3O)nc3c(C4CC4)cnn23)cc1 [PPA-023] | 236 | 0.5 | 236 | 113 | <0.47 | > 500 | > 500
Cn1cc(-c2ccccn2)nc1CNc1cc(NC[C@H]2CCNC[C@@H]2O)nc2c(C3CC3)cnn12 [PPA-024] | 6 | 2.8 | 6 | 17 | 0.06 | 96.4 | 96.4
O[C@H]1CNCC[C@@H]1CNc1cc(NCc2cn(-c3ccccn3)cn2)n2ncc(C3CC3)c2n1 [PPA-025] | 78 | 7.5 | 78 | 587 | 13.22 | 5.9 | 5.9
O[C@H]1CNCC[C@@H]1CNc1cc(NCc2ccc(-c3ccccc3)nc2)n2ncc(C3CC3)c2n1 [PPA-026] | 45 | 3.6 | 45 | 164 | 3.57 | 12.6 | 12.6
COc1cccnc1-c1ccc(CNc2cc(NC[C@H]3CCNC[C@@H]3O)nc3c(C4CC4)cnn23)cc1 [PPA-027] | 163 | 1.8 | 163 | 300 | 74.09 | 2.2 | 2.2
O[C@H]1CNCC[C@@H]1CNc1cc(NCc2ccc(-c3ncccc3OC(F)(F)F)cc2)n2ncc(C3CC3)c2n1 [PPA-028] | 242 | 1.9 | 242 | 468 | 24.95 | 9.7 | 9.7
O[C@H]1CNCC[C@@H]1CNc1cc(NCc2ccc(-c3ncccn3)cc2)n2ncc(C3CC3)c2n1 [PPA-029] | 63 | 2.8 | 63 | 179 | 45.00 | 1.4 | 1.4
